Assay results published in patent publication US20260226128A1, “Capped Peptides and Methods for Using the Same” (The Board of Trustees of the Leland Stanford Junior …, priority 2023, published 2026).

Tests used:
diet-induced obese mice [1] = assay: Three-day daily dosing in diet-induced obese mice, food intake and body weight; type: in vivo, mouse; settings: 50 mg/kg/day, IP, 3 days, versus vehicle control
Description: (§1) FIG. 5. Functional studies of CAP-GDF15 in feeding and energy balance in mice. […] (B) Representative extracted ion chromatogram and (C) mirror tandem fragmentation spectra of CAP-GDF15 (pGlu-[…]-NH2; +2 ion m/z=682.4) and the endogenous plasma peak. (D) Food intake, (E) respiratory exchange ratio (RER), and (F) ambulatory activity of 12-16-week diet-induced obese male mice following a single treatment of CAP-GDF15 (50 mg/kg, intraperitoneal) or vehicle control. (G) Food intake, (H) RER, and (I) ambulatory activity of 12-16-week diet-induced obese male mice following a single treatment of scrambled CAP-GDF15 (50 mg/kg, intraperitoneal, scrambled sequence: pGlu-[…]-NH2) or vehicle control. (J) 3-day food intake and (K) body weight of 12-16-week diet-induced obese male mice following treatment with CAP-GDF15 or scrambled CAP-GDF15 (50 mg/kg/day, IP), or vehicle control. Data are shown as means #SEM. For (D-F), N=12/group; for (G-I), N=8/group; for (J,K), N=7/group. For (D-1), injection occurred at time T=0 (5:00 μm) and data was collected for the following 16 hrs. For (D-K), ** P<0.01, *** P<0.001 by two-way ANOVA.
Lastly, to determine whether the acute hypophagic effects of CAP-GDF15 would lead to long-term suppression of feeding and obesity, we administered CAP-GDF15 or scrambled CAP-GDF15 (50 mg/kg/day, IP), or vehicle control to diet-induced obese mice. Food intake and body weight were monitored over a three-day period. […] Importantly, mice treated with the scrambled CAP-GDF15 peptide were indistinguishable in body weight or food intake from control mice (FIGS. 5J-5K).
Mice and treatments. Animal experiments were performed according to a procedure approved by the Stanford University Administrative Panel on Laboratory Animal Care. Mice were maintained in 12-h light-dark cycles at 22° C. and about 50% relative humidity and fed a standard irradiated rodent diet. Where indicated, a high-fat diet (D12492, Research Diets 60% kcal from fat) was used. Male C57BL/6J (stock number 000664) and male C57BL/6J DIO mice were purchased from the Jackson Laboratory (stock number 380050). For studies in high fat diet-fed mice, peptides were dissolved in 18:1:1 (by volume) of saline: Kolliphor EL (Sigma Aldrich): DMSO and administered to mice by intraperitoneal injections at a volume of 10 μl/g at the indicated doses for the indicated times. For lipopolysaccharide injection, LPS was dissolved in saline and administered to mice at a volume of 5 μl/g at indicated dose. For fasting, food was removed from mice for 16 h. For running, a six-lane Columbus Instruments animal treadmill (product 1055-SRM-D65) was used with following 1 h protocol: 10 min at 6 m/min, 50 min at 18 m/min, and increase every 2 min by 2 m/min for the last 10 minutes, all at 12° incline. […]

diet-induced obese mice [2] = assay: Single dose in diet-induced obese mice, metabolic chambers (CAP-GDF15 experiments); type: in vivo, mouse; settings: single dose 50 mg/kg intraperitoneally
Description: as §1
FIG. 6. Additional measurements from metabolic chambers of mice treated with CAP-GDF15. (A) VO2 and (B) VCO2 of 12-16-week diet-induced obese male mice following a single treatment of CAP-GDF15 (50 mg/kg, intraperitoneal) or vehicle control. (C) VO2 and (D) VCO2 of 12-16-week diet-induced obese male mice following a single treatment of scrambled CAP-GDF15 (50 mg/kg, intraperitoneal, scrambled sequence: p[…]-NH2) or vehicle control. Data are shown as means±SEM. For (A-B), N=12/group; for (C-D), N=8/group. For (A-D), injection occurred at time T=0 (5:00 μm) and data was collected for the subsequent 16 hrs.
To test this possibility, we administered a single dose of CAP-GDF15 (50 mg/kg, intraperitoneally) to diet-induced obese mice and measured whole body parameters of energy balance in metabolic chambers.
We next synthesized a control CAP-GDF15 peptide that preserved amino acid composition but scrambled the intervening amino acid sequence (scrambled CAP-GDF15, pGlu-[…]-NH2). […] We conclude that the hypophagic effects of CAP-GDF15 are specific to this amino acid sequence.
Mice and treatments. Animal experiments were performed according to a procedure approved by the Stanford University Administrative Panel on Laboratory Animal Care. Mice were maintained in 12-h light-dark cycles at 22° C. and about 50% relative humidity and fed a standard irradiated rodent diet. Where indicated, a high-fat diet (D12492, Research Diets 60% kcal from fat) was used. Male C57BL/6J (stock number 000664) and male C57BL/6J DIO mice were purchased from the Jackson Laboratory (stock number 380050). For studies in high fat diet-fed mice, peptides were dissolved in 18:1:1 (by volume) of saline: Kolliphor EL (Sigma Aldrich): DMSO and administered to mice by intraperitoneal injections at a volume of 10 μl/g at the indicated doses for the indicated times. For lipopolysaccharide injection, LPS was dissolved in saline and administered to mice at a volume of 5 μl/g at indicated dose. For fasting, food was removed from mice for 16 h. For running, a six-lane Columbus Instruments animal treadmill (product 1055-SRM-D65) was used with following 1 h protocol: 10 min at 6 m/min, 50 min at 18 m/min, and increase every 2 min by 2 m/min for the last 10 minutes, all at 12° incline. For all treatment experiments, mice were mock injected with the vehicle for 3-5 days until body weights were stabilized. Heparin plasm was harvested by submandibular bleed. For all experiments, mice were randomly assigned to treatment groups. Experimenters were not blinded to groups.
Metabolic chamber studies. For acute energy expenditure studies, food intake, RER, movement, VO2, and VCO2 were collected with CLAMS Oxymax Metabolic Cages. Mice were placed individual metabolic cages for 24 hours prior to experiment. […]

GH3 cells = assay: Growth hormone secretion from GH3 cells (ELISA of media); type: cell-based, rat; settings: 10 μM
Description: FIG. 13. Functional screen in GH3 cells identifies CAP-WNT9A as a growth hormone secretagogue in vitro. (A) Z-score of media growth hormone concentration with 1 hour treatment of 10 μM of 100% conserved capped peptides growth hormone secretagogue activity in GH3 cells (N=1 for all peptides and N=3 for DMSO). (B) Media growth hormone concentration with 1 hour treatment of 10 μM CAP-WNT9A or DMSO (N=3/group). (Error bars are SEM.)
In a functional screen in GH3 cells, a rat pituitary cell line, various capped peptides are shown to activate growth hormone secretion (FIG. 13A).
In vitro studies. GH3 cells (rat pituitary cell line, ATCC cat. #CCL-82.1) were cultured in F-12K medium with 2.5% fetal bovine serum and 15% horse serum. GH3 cells were washed, resuspended in Krebs Ringer Hepes Buffer, diluted to 0.5 million cells/mL, and aliquoted into tubes (300 μL/sample). The GH3 cells were then starved for 60 minutes in Krebs Ringer Hepes Buffer. The capped peptides (N=1 in screen and N=3 in repeat with CAP-WNT9A) or DMSO (N=3) control were added at a 10 μM final concentration. GH3 cells were incubated for 1 hour. Cells were pelleted with 5 min centrifuge spin at 500×g at 4 C. Grown hormone was measured in the supernatant with an ELISA kit (Thermo Cat #KRC5311) according to product protocol. Z-score of growth hormone concentration is shown. […]

Row | Substance | body weight over three-day period (diet-induced obese mice [1]) | food intake over three-day period (diet-induced obese mice [1]) | respiratory exchange ratio (RER) (diet-induced obese mice [2]; 16 hrs after injection) | food intake, effect in words (diet-induced obese mice [2]; identical experimental conditions) | carbon dioxide production (VCO2) (diet-induced obese mice [2]) | movement (ambulatory activity) (diet-induced obese mice [2]) | oxygen consumption (VO2) (diet-induced obese mice [2]) | suppression of food intake compared to vehicle-treated mice (diet-induced obese mice [2]; 16 hrs after injection) | growth hormone secretagogue activity in screen (Z-score of media growth hormone concentration) (GH3 cells; 1 hour treatment, N=1) | growth hormone concentration in media versus DMSO (GH3 cells; one hour treatment, N=3)
1 | pGlu-GLEALRARLRV-NH2 (HELM PEPTIDE1{[Glp].G.L.E.A.L.R.A.R.L.R.V.[am]}$$$$V2.0; SMILES CC(C)C[C@H](NC(=O)CNC(=O)[C@@H]1CCC(=O)N1)C(=O)N[C@@H](CCC(=O)O)C(=O)N[C@@H](C)C(=O)N[C@@H](CC(C)C)C(=O)N[C@@H](CCCNC(=N)N)C(=O)N[C@@H](C)C(=O)N[C@@H](CCCNC(=N)N)C(=O)N[C@@H](CC(C)C)C(=O)N[C@@H](CCCNC(=N)N)C(=O)N[C@H](C(N)=O)C(C)C) [scrambled CAP-GDF15, reference compound] | indistinguishable | indistinguishable | completely ineffective | completely ineffective |  |  |  |  |  | 
2 | pGlu-LELRLRVAAGR-NH2 (HELM PEPTIDE1{[Glp].L.E.L.R.L.R.V.A.A.G.R.[am]}$$$$V2.0; SMILES CC(C)C[C@H](NC(=O)[C@@H]1CCC(=O)N1)C(=O)N[C@@H](CCC(=O)O)C(=O)N[C@@H](CC(C)C)C(=O)N[C@@H](CCCNC(=N)N)C(=O)N[C@@H](CC(C)C)C(=O)N[C@@H](CCCNC(=N)N)C(=O)N[C@H](C(=O)N[C@@H](C)C(=O)N[C@@H](C)C(=O)NCC(=O)N[C@@H](CCCNC(=N)N)C(N)=O)C(C)C) [CAP-GDF15, 12-mer capped peptide from amino acids 174-185 of mouse GDF15 prepropeptide region] | increasing reduction in body weight | durable suppression of food intake | suppression of respiratory exchange ratio (RER) was also observed |  | did not alter | did not alter | did not alter | ~ 60% |  | 
3 | pGlu-WGGCGDNLKYSSKFVEFL-NH2 (HELM PEPTIDE1{[Glp].W.G.G.C.G.D.N.L.K.Y.S.S.K.F.V.E.F.L.[am]}$$$$V2.0; SMILES CC(C)C[C@H](NC(=O)[C@H](Cc1ccccc1)NC(=O)[C@H](CCC(=O)O)NC(=O)[C@@H](NC(=O)[C@H](Cc1ccccc1)NC(=O)[C@H](CCCCN)NC(=O)[C@H](CO)NC(=O)[C@H](CO)NC(=O)[C@H](Cc1ccc(O)cc1)NC(=O)[C@H](CCCCN)NC(=O)[C@H](CC(C)C)NC(=O)[C@H](CC(N)=O)NC(=O)[C@H](CC(=O)O)NC(=O)CNC(=O)[C@H](CS)NC(=O)CNC(=O)CNC(=O)[C@H](Cc1c[nH]c2ccccc12)NC(=O)[C@@H]1CCC(=O)N1)C(C)C)C(N)=O) [CAP-WNT9A, top hit of growth hormone secretagogue screen] |  |  |  |  |  |  |  |  | highest growth hormone secretagogue activity | increased by four times
